Experimental data reported in patent publication US11583543B2, “Ambroxol to improve and/or extend healthspan, lifespan and/or mental acuity” (NeueRe, LLC, priority 2017, dated 2023).

How the values were obtained:
NIH3T3 cells = assay: Basal macroautophagy, mCherry-GFP-LC3 tandem reporter, high content microscopy; format: cell-based, mouse; conditions: 24 h in complete media; autophagic vacuoles, autophagosomes, autolysosomes; FIG. 3
Description: FIG. 3. Effect of Ambroxol on basal macroautophagy in mouse cells. Mouse fibroblasts in culture (NIH3T3 cells) expressing the tandem reporter mCherry-GFP-LC3 were exposed to the indicated concentrations of Ambroxol for 24 h in complete media. Panel A. Schematic of the autophagic compartments analyzed. Panels B-D. Number of autophagic vacuoles (AV) (Panel B); autophagosomes (APG) (Panel C); and autolysosomes (AUT) (Panel D). All values are mean+s.e.m. and quantifications were done in at least 2,500 cells per condition in three different experiments using high content microscopy. Differences with untreated (0 uM ambroxol) are significant for *p<0.05 **p<0.01 and ***p<0.001.
Mouse fibroblasts (NIH3T3) were obtained from the American Type Culture Collection (ATCC). […] The number of particles/puncta per cell was quantified using the ‘particle identifier’ function in the cytosolic region after thresholding in non-saturated images. In all cases, focal plane thickness was set at 0.17 μm and sections with maximal nucleus diameter were selected for quantification. […] Macroautophagy activity in intact cells was measured upon transduction with lentivirus carrying the mCherry-GFP-LC3 tandem construct. […] Cells were plated on glass-bottom 96 well plates and fluorescence was read in both channels. […] Autophagic flux was determined as the conversion of autophagosomes (yellow) to autolysosomes (red only puncta).

male BDF1 mice = assay: Lifespan study with ambroxol as chow supplement; format: in vivo, mouse
Description: Group 1 represents control animals that were not administered ambroxol; Group 2 represents animals administered 50 mg/kg (body weight) of ambroxol daily as a chow supplement, starting at 2 months of age
Weaned male BDF1 mice were raised from pups, housed 1-4 animals per cage and fed Teklad 7013 NIH-31 rodent chow and water ad libitum. At 2 months of age, the mice were divided into two roughly equal groups of 22-25 animals. One group continued to be fed the Teklad chow as before (control); the other group was switched to Teklad chow formulated with ambroxol at 300 mg per kg of chow. This formulation was designed, based on the average ad libitum chow consumption of an adult male BDF1 mouse, to deliver 50 mg/kg/day (based on body mass) to each mouse in the treated group. Mice were maintained on this diet until they died naturally or until they reached 16 months of age, at which time the experiment ended. During the course of the experiment all mice were periodically removed from their cages and handled in the course of subjecting them to various sensorimotor, cognitive, and/or behavioral tests.
Group 1 represents control animals that were not administered ambroxol; Group 2 represents animals administered 50 mg/kg of ambroxol daily as a chow supplement, starting at 2 months of age.

mice = assay: Novel place recognition cognitive acuity test; format: in vivo, mouse; conditions: tested at 7 months, FIG. 2
Description: FIG. 2. Mice were tested at age 7 months for novel place recognition. This is a cognitive test to measure short term working memory, involving recognition of a familiar object found in an unfamiliar place (see Magen et al (2012) Eur. J. Neurosci. 35: 870-882; Magen and Chesselet (2011) J. Parkinson's Disease 1: 217-227). A Discrimination Index (DI)=(tnovel−tfamiliar)/(tnovel+tfamiliar) is used to assess the time spent exploring near the object in a novel place (“tnovel”) vs. the total exploration time overall. Discrimination Index scores greater than zero are considered to indicate good place recognition memory. In this experiment, three groups of mice, with at least 13 mice in each group, were given a cognitive acuity test at 7 months.

Q: What does the source list for Nc1c(Br)cc(Br)cc1CN[C@H]1CC[C@H](O)CC1 [Ambroxol, trans-4-(2-amino-3,5-dibromobenzylamino) cyclohexanol]?
A: macroautophagy (NIH3T3 cells): Induces Macroautophagy; lifespan (male BDF1 mice; 50 mg/kg daily as chow supplement from 2 months of age, until 16 months, vs control (Group 1), FIG. 1): increase lifespan; healthspan (health of surviving animals when sacrificed) (male BDF1 mice; Group 2, 50 mg/kg daily, vs Group 1 control, preliminary data): at least as healthy; cognitive acuity (mice; High Dose group 150 mg/kg/day): best cognitive acuity results; cognitive acuity (mice; Low Dose group 50 mg/kg/day): results in between the Control Group and the “High Dose” Group
